# In patent publication US8652522B2, “Pharmaceutical composition of an iontophoresis” (Teikoku Seiyaku Co., Ltd., priority 2009, dated 2014):
# Where two headings read alike, the source gives them in different places.
# How the values were obtained:
# [1] = blood plasma
# Procedure: (§1) Moreover, the condition of the transdermally administration in association with the treatment of applying current is as follows.
# (§2) This was funneled into a patch comprising an electrode and an adhesion layer, and cooled down at −80° C. to obtain a desired drug product.
# Two NZ family male rabbits to be devoted to the test was bought from […] LABES Co., Ltd., (Charles River Japan, Inc.). […] The observation of the animal during the preliminary breeding and the test, as to a hair coat, a skin and a excretory substance was carried out every day.
# The administration route: the transdermally administration in association with the treatment of applying current
# The radioactivity density assay in the blood plasma was carried out as follows.
# A sample for assay was treated by adding the solubilizing agent, and the measurement of the sample was carried out by using the liquid scintillation counter (LSC-1000, ALOKA). The limit of determinate quantity was two folds of the background, and the lesser value of the limit was determined as ND. The radioactivity density assay in the blood plasma was calculated from the measured value.
# The radioactivity density is used as indication pointer, the calibrated concentration of the chemical drug converted with unaltered substance was calculated by the following formula. The calibrated concentration of the chemical drug (μg eq./mL)=The radioactivity density in the sample (dpm/mL)/{the amount of the administration radioactivity (dpm)/the amount of the administration chemical drug (μg)}
# [2] = remark: listed apart in the source
# Procedure: as §1, §2
# After that, an embedded freezing block was directed to the cutter of the microtome stage for mounting (CRYOMACROCUT, Leica), and a femoral region thereof was directed to the front, and a neck region was directed to the backside, and was fixed with being in close contact with the backside of the leg to the stage for mounting. When the stage for mounting of microtome was slid, the cutter was contacted perpendicular with the narrow side of the rectangular, the upper surface of this was chipped off as a sliced segment, the sliced segment was in close contact to the adhesive tape, and removed. This operation was repeated a couple dozens times, it was cleaved from the front portion of the knee to the backside portion, a segment of the administration and current-carrying part was (1) to (7) (from the front to the backside) in order of precedence.
smiles,measurement,setting,value
C[C@H]1C[C@H]2[C@@H]3CCC4=CC(=O)C=C[C@]4(C)[C@@]3(F)[C@@H](O)C[C@]2(C)[C@@]1(O)C(=O)COP(=O)([O-])[O-].[Na+].[Na+] [betamethasone sodium phosphate],pair theoritical value % Mean,"N2-W (nitrogen-bubbled purified water), 4° C. 1 month",107.68%
same,pair theoritical value % Mean,"N2-W (nitrogen-bubbled purified water), 4° C. 2 weeks",99.20%
same,pair theoritical value % Mean,"N2-W (nitrogen-bubbled purified water), 4° C. 4 month",100.06%
same,pair theoritical value % Mean,"N2-W (nitrogen-bubbled purified water), 4° C. 6 month",98.27%
same,pair theoritical value % Mean,"N2-W (nitrogen-bubbled purified water), 40° C. 1 month",85.82%
same,pair theoritical value % Mean,"N2-W (nitrogen-bubbled purified water), 40° C. 4 month",100.30%
same,pair theoritical value % Mean,"N2-W (nitrogen-bubbled purified water), 50° C. 1 month",89.72%
same,pair theoritical value % Mean,"N2-W (nitrogen-bubbled purified water), 50° C. 4 month",77.62%
same,pair theoritical value % Mean,"N2-W (nitrogen-bubbled purified water), 60° C. 1 month",38.91%
same,pair theoritical value % Mean,"N2-W (nitrogen-bubbled purified water), 60° C. 2 weeks",91.76%
same,pair theoritical value % Mean,"N2-W (nitrogen-bubbled purified water), 60° C. 4 month",41.97%
same,pair theoritical value % Mean,"W (purified water), 4° C. 1 month",101.42%
same,pair theoritical value % Mean,"W (purified water), 4° C. 2 weeks",101.05%
same,pair theoritical value % Mean,"W (purified water), 4° C. 4 month",110.24%
same,pair theoritical value % Mean,"W (purified water), 4° C. 6 month",98.01%
same,pair theoritical value % Mean,"W (purified water), 40° C. 1 month",96.79%
same,pair theoritical value % Mean,"W (purified water), 40° C. 4 month",100.99%
same,pair theoritical value % Mean,"W (purified water), 50° C. 1 month",78.74%
same,pair theoritical value % Mean,"W (purified water), 50° C. 4 month",70.87%
same,pair theoritical value % Mean,"W (purified water), 60° C. 1 month",33.60%
same,pair theoritical value % Mean,"W (purified water), 60° C. 2 weeks",85.69%
same,pair theoritical value % Mean,"W (purified water), 60° C. 4 month",17.67%
same,pair theoritical value % Mean,"pH 2, 4° C. 1 month",81.61%
same,pair theoritical value % Mean,"pH 2, 4° C. 2 weeks",75.50%
same,pair theoritical value % Mean,"pH 2, 4° C. 4 month",121.42%
same,pair theoritical value % Mean,"pH 2, 40° C. 1 month",62.65%
same,pair theoritical value % Mean,"pH 2, 40° C. 4 month",57.15%
same,pair theoritical value % Mean,"pH 2, 40° C. 6 month",33.20%
same,pair theoritical value % Mean,"pH 2, 50° C. 1 month",55.83%
same,pair theoritical value % Mean,"pH 2, 50° C. 4 month",22.44%
same,pair theoritical value % Mean,"pH 2, 60° C. 1 month",14.90%
same,pair theoritical value % Mean,"pH 2, 60° C. 2 weeks",42.03%
same,pair theoritical value % Mean,"pH 2, 60° C. 4 month",2.79%
same,pair theoritical value % Mean,"pH 3, 4° C. 1 month",82.46%
same,pair theoritical value % Mean,"pH 3, 4° C. 2 weeks",85.23%
same,pair theoritical value % Mean,"pH 3, 4° C. 4 month",104.26%
same,pair theoritical value % Mean,"pH 3, 40° C. 1 month",82.48%
same,pair theoritical value % Mean,"pH 3, 40° C. 4 month",73.33%
same,pair theoritical value % Mean,"pH 3, 40° C. 6 month",50.00%
same,pair theoritical value % Mean,"pH 3, 50° C. 1 month",64.66%
same,pair theoritical value % Mean,"pH 3, 50° C. 4 month",32.84%
same,pair theoritical value % Mean,"pH 3, 60° C. 1 month",17.55%
same,pair theoritical value % Mean,"pH 3, 60° C. 2 weeks",50.37%
same,pair theoritical value % Mean,"pH 3, 60° C. 4 month",3.46%
same,pair theoritical value % Mean,"pH 4, 4° C. 1 month",95.85%
same,pair theoritical value % Mean,"pH 4, 4° C. 2 weeks",89.42%
same,pair theoritical value % Mean,"pH 4, 4° C. 4 month",108.15%
same,pair theoritical value % Mean,"pH 4, 4° C. 6 month",81.32%
same,pair theoritical value % Mean,"pH 4, 40° C. 1 month",81.36%
same,pair theoritical value % Mean,"pH 4, 40° C. 4 month",77.80%
same,pair theoritical value % Mean,"pH 4, 40° C. 6 month",53.22%
same,pair theoritical value % Mean,"pH 4, 50° C. 1 month",63.08%
same,pair theoritical value % Mean,"pH 4, 50° C. 4 month",31.80%
same,pair theoritical value % Mean,"pH 4, 60° C. 1 month",19.17%
same,pair theoritical value % Mean,"pH 4, 60° C. 2 weeks",52.38%
same,pair theoritical value % Mean,"pH 4, 60° C. 4 month",3.38%
same,pair theoritical value % Mean,"pH 5, 4° C. 1 month",93.36%
same,pair theoritical value % Mean,"pH 5, 4° C. 2 weeks",94.34%
same,pair theoritical value % Mean,"pH 5, 4° C. 4 month",109.24%
same,pair theoritical value % Mean,"pH 5, 4° C. 6 month",90.85%
same,pair theoritical value % Mean,"pH 5, 40° C. 1 month",78.88%
same,pair theoritical value % Mean,"pH 5, 40° C. 4 month",82.09%
same,pair theoritical value % Mean,"pH 5, 50° C. 1 month",75.05%
same,pair theoritical value % Mean,"pH 5, 50° C. 4 month",32.88%
same,pair theoritical value % Mean,"pH 5, 60° C. 1 month",17.09%
same,pair theoritical value % Mean,"pH 5, 60° C. 2 weeks",56.51%
same,pair theoritical value % Mean,"pH 5, 60° C. 4 month",3.34%
same,pair theoritical value % Mean,"pH 6, 4° C. 1 month",104.98%
same,pair theoritical value % Mean,"pH 6, 4° C. 2 weeks",98.90%
same,pair theoritical value % Mean,"pH 6, 4° C. 4 month",107.46%
same,pair theoritical value % Mean,"pH 6, 4° C. 6 month",97.60%
same,pair theoritical value % Mean,"pH 6, 40° C. 1 month",86.51%
same,pair theoritical value % Mean,"pH 6, 40° C. 4 month",89.24%
same,pair theoritical value % Mean,"pH 6, 50° C. 1 month",75.38%
same,pair theoritical value % Mean,"pH 6, 50° C. 4 month",41.48%
same,pair theoritical value % Mean,"pH 6, 60° C. 1 month",25.28%
same,pair theoritical value % Mean,"pH 6, 60° C. 2 weeks",69.99%
same,pair theoritical value % Mean,"pH 6, 60° C. 4 month",5.85%
same,pair theoritical value % Mean,"pH 7, 4° C. 1 month",110.30%
same,pair theoritical value % Mean,"pH 7, 4° C. 2 weeks",100.23%
same,pair theoritical value % Mean,"pH 7, 4° C. 4 month",105.27%
same,pair theoritical value % Mean,"pH 7, 4° C. 6 month",101.38%
same,pair theoritical value % Mean,"pH 7, 40° C. 1 month",89.32%
same,pair theoritical value % Mean,"pH 7, 40° C. 4 month",102.71%
same,pair theoritical value % Mean,"pH 7, 50° C. 1 month",86.96%
same,pair theoritical value % Mean,"pH 7, 50° C. 4 month",66.49%
same,pair theoritical value % Mean,"pH 7, 60° C. 1 month",36.13%
same,pair theoritical value % Mean,"pH 7, 60° C. 2 weeks",87.22%
same,pair theoritical value % Mean,"pH 7, 60° C. 4 month",25.71%
same,pair theoritical value % Mean,"pH 8, 4° C. 1 month",97.51%
same,pair theoritical value % Mean,"pH 8, 4° C. 2 weeks",104.91%
same,pair theoritical value % Mean,"pH 8, 4° C. 4 month",108.32%
same,pair theoritical value % Mean,"pH 8, 4° C. 6 month",103.29%
same,pair theoritical value % Mean,"pH 8, 40° C. 1 month",90.10%
same,pair theoritical value % Mean,"pH 8, 40° C. 4 month",106.12%
same,pair theoritical value % Mean,"pH 8, 50° C. 1 month",103.57%
same,pair theoritical value % Mean,"pH 8, 50° C. 4 month",83.79%
same,pair theoritical value % Mean,"pH 8, 60° C. 1 month",45.01%
same,pair theoritical value % Mean,"pH 8, 60° C. 2 weeks",95.80%
same,pair theoritical value % Mean,"pH 8, 60° C. 4 month",61.99%
CC1CC2C3CCC4=CC(=O)C=CC4(C)C3(F)C(O)CC2(C)C1(O)C(=O)COP(=O)([O-])[O-].[Na+].[Na+] (stereo not drawn) [[^3H] Betamethasone-21-phosphate disodium salt],average of drug conversion,"[1]; 30 min. administration individual, 10 minutes",0.01 μg eq./mL
same,average of drug conversion,"[1]; 30 min. administration individual, 20 minutes",0.03 μg eq./mL
same,average of drug conversion,"[1]; 30 min. administration individual, 30 minutes",0.09 μg eq./mL
same,average of drug conversion,"[1]; 120 min. administration individual, 10 minutes",0.04 μg eq./mL
same,average of drug conversion,"[1]; 120 min. administration individual, 20 minutes",0.09 μg eq./mL
same,average of drug conversion,"[1]; 120 min. administration individual, 30 minutes",0.23 μg eq./mL
same,average of drug conversion,"[1]; 120 min. administration individual, 60 minutes",0.66 μg eq./mL
same,average of drug conversion,"[1]; 120 min. administration individual, 90 minutes",0.91 μg eq./mL
same,average of drug conversion,"[1]; 120 min. administration individual, 120 minutes",1.17 μg eq./mL
same,"blackened image according to 3H, cingulum of the perimysial tissue (perimysium)",[2]; existing up to the reticular dermis located in the inner side of the epidermal tissue,high density
same,blackened image according to 3H at a fibrous encapsulation and a synovium membrane,"[2]; synovial joint, administration time 120 minutes and 30 minutes",very slight amount
